Data as given in patent US12643906B2, “Fused aza-heterocyclic amide compound and use thereof” (CSPC ZHONGQI PHARMACEUTICAL TECHNOLOGY (SHIJIAZHUANG) CO., …, priority 2020, dated 2026).
Where two headings read alike, the source gives them in different places.

Assays:
Ba/F3 ETV6-NTRK3-G623R = target: T1, Ba/F3 ETV6-NTRK3-G623R (Homo sapiens, UniProt Q16288, G623R, cells depend on it); experiment: In vitro cell proliferation inhibition (MTT); format: cell-based, murine; settings: 72 h, read-out: IC50 Ba/F3 ETV6-NTRK3-G623R
T1 construct: fused on or other part: P41212 (Transcription factor ETV6)
Experimental: (§1) Cells in the logarithmic growth phase were harvested and counted using a […]. The cell suspension with a certain density was pipetted uniformly and seeded into a 96-well plate with each well of 100 μL, and shaken to make the cells uniformly disperse into the wells. 100 μL of compound solution with certain concentration gradient was added into each well, and 3 duplicate wells were set for each concentration. The plate was cultured in a CO2 incubator at 37° C. for 72 h. 20 μL of MTT working solution (5 mg/mL) was added into each well, and the plate was placed at 37° C. for 4 h, and centrifuged at 1000 rpm for 5 min by a plate centrifuge. After 180 μL of culture medium was discarded, the plate was added with 150 μL of DMSO, and mixed well with a microplate shaker, the plate bottom was wiped, and optical density (OD) at 550 nm was detected with a microplate reader.

Ba/F3 LMNA-NTRK1-G595R = target: T2, Ba/F3 LMNA-NTRK1-G595R (Homo sapiens, UniProt P04629, G595R, cells depend on it); experiment: In vitro cell proliferation inhibition (MTT); format: cell-based, murine; settings: 72 h, read-out: IC50 Ba/F3 LMNA-NTRK1-G595R
T2 construct: fused on or other part: P02545 (Prelamin-A/C)
Experimental: as §1

Ba/F3 LMNA-NTRK1-G667C = target: T3, Ba/F3 LMNA-NTRK1-G667C (Homo sapiens, UniProt P04629, G667C, cells depend on it); experiment: In vitro cell proliferation inhibition (MTT); format: cell-based, murine; settings: 72 h, read-out: IC50 Ba/F3 LMNA-NTRK1-G667C
T3 construct: fused on or other part: P02545 (Prelamin-A/C)
Experimental: as §1

Ba/F3 ETV6-NTRK3-G696A = target: T4, Ba/F3 ETV6-NTRK3-G696A (Homo sapiens, UniProt Q16288, G696A, cells depend on it); experiment: In vitro cell proliferation inhibition (MTT); format: cell-based, murine; settings: 72 h, read-out: IC50 Ba/F3 ETV6-NTRK3-G696A
T4 construct: fused on or other part: P41212 (Transcription factor ETV6)
Experimental: • Source of 6 kinds of cell lines for the test: KYinno Biotechnology (Beijing) Co., Ltd. • Cell type: murine B cells • Culture medium: RPMI-1640+10% FB S 2. Test Method
as §1

Ba/F3 ETV6-NTRK2 = target: T5, Ba/F3 ETV6-NTRK2 (Homo sapiens, UniProt Q16620); experiment: In vitro cell proliferation inhibition (MTT); format: cell-based, murine
T5 construct: fused on or other part: P41212 (Transcription factor ETV6)
Experimental: as §1

Ba/F3 LMNA-NTRK1 = target: T6, Ba/F3 LMNA-NTRK1 (Homo sapiens, UniProt P04629); experiment: In vitro cell proliferation inhibition (MTT); format: cell-based, murine; settings: 72 h, read-out: IC50 Ba/F3 LMNA-NTRK1
T6 construct: fused on or other part: P02545 (Prelamin-A/C)
Experimental: as §1

TRKA = target: T7, TRKA (Homo sapiens, UniProt P04629); experiment: HTRF kinase inhibition assay, TRKA; format: biochemical
T7 construct: purchased Bioduro
Experimental: (§2) The compound to be tested with a certain concentration gradient and an enzyme solution were successively added into a plate (kinase buffer (1× kinase buffer (Cisbio, Cat #62EZBFDD), pH 7.5; 5 mM MgCl2, 1 mM DTT) was added into negative control wells), and the compound plate was centrifuged at 1000 rpm for 30 seconds. The plate was sealed and incubated in a Constant Temperature Incubator at 25° C. for 30 min. A substrate solution containing TK-Sub-biotin (Cisbio, Cat #61TKOBL) and ATP (Sigma, Cat #R0441) was prepared, the substrate solution was added into a 384-well plate, and the plate was centrifuged at 1000 rpm for 30 seconds. The plate was sealed and incubated in a Constant Temperature Incubator at 25° C. for 60 min.
(§3) TK antibody and XL665 were diluted, mixed and added into the assay plate, and the plate was centrifuged at 1000 rpm for 30 seconds. The plate was sealed and incubated in a Constant Temperature incubator Incubator at 25° C. for 60 min. The assay plate was placed on an Envision reader for reading. (HTRF 665/615 ratio: signal value at 665 nm/signal value at 615 nm) Inhibition=(rationegative control well−ratiocompound well)/(rationegative control well−ratioenzyme-free control well)×100% 1.3 Data Analysis and Curve Fitting
(§4) Data were fitted in XLFit excel add-in version 5.4.0.8 to obtain IC50 values.

TRKB = target: T8, TRKB (Homo sapiens, UniProt Q16620); experiment: HTRF kinase inhibition assay, TRKB; format: biochemical
T8 construct: purchased Bioduro
Experimental: as §2
(§5) TK antibody and XL665 were diluted, mixed and added into the assay plate, and the plate was centrifuged at 1000 rpm for 30 seconds. The plate was sealed and incubated in a Constant Temperature incubator Incubator at 25° C. for 60 min. The assay plate was placed on an Envision reader for reading.
as §4

TRKC = target: T9, TRKC (Homo sapiens, UniProt Q16288); experiment: HTRF kinase inhibition assay, TRKC; format: biochemical
T9 construct: purchased Bioduro
Experimental: as §2, §3, §4

TRKA(G595R) = target: T10, TRKA(G595R) (Homo sapiens, UniProt P04629, G595R); experiment: HTRF kinase inhibition assay, TRKA(G595R); format: biochemical
T10 construct: purchased signalchem
Experimental: as §2, §3, §4

TRKA(G667C) = target: T11, TRKA(G667C) (Homo sapiens, UniProt P04629, G667C); experiment: HTRF kinase inhibition assay, TRKA(G667C); format: biochemical
T11 construct: purchased signalchem
Experimental: as §2, §3, §4

TRKC(G623R) = target: T12, TRKC(G623R) (Homo sapiens, UniProt Q16288, G623R); experiment: HTRF kinase inhibition assay, TRKC(G623R); format: biochemical
T12 construct: purchased Bioduro
Experimental: as §2, §3, §4

TRKC(G696A) = target: T13, TRKC(G696A) (Homo sapiens, UniProt Q16288, G696A); experiment: HTRF kinase inhibition assay, TRKC(G696A); format: biochemical
T13 construct: purchased Bioduro
Experimental: as §2, §5, §4

ALK = target: T14, ALK (Homo sapiens, UniProt Q9UM73); experiment: Kinase inhibition assay with fluorescein labeled peptide, ALK; format: biochemical
T14 construct: purchased Carna 08-105
Experimental: (§6) Compounds were diluted to a certain concentration in DMSO with 4-fold gradients. The compound with a certain concentration, an enzyme solution and DMSO were added into a 384-well plate, and the plate was incubated at room temperature for 10 min. […] The plate was subjected to reading.

ROS1 = target: T15, ROS1 (Homo sapiens, UniProt P08922); experiment: Kinase inhibition assay with fluorescein labeled peptide, ROS1; format: biochemical
T15 construct: purchased Carna 08-163
Experimental: as §6

[1] = system: Ba/F3 LMNA-NTRK1-G595R model; settings: 100 mg/kg, gavage
Experimental: (§7) The cells in the logarithmic growth phase were collected and re-suspending in serum-free culture medium to make the cell concentration at […] cells/mL. The cell suspension was added with equal volume of Matrigel to make the final cell concentration at 3×10^7-5×10^7 cells/mL. The animal model was established by subcutaneously inoculating 0.1 mL of tumor cell suspension in the axilla of the forelimb of NuNu mice (female, 4-6 weeks, Beijing Vital River Laboratory Animal Technology Co., Ltd.) in an amount of 3×10^6-5×10^6 cells/mouse.
(§8) The maximum and the minimum tumor diameters of the xenografts in nude mice were measured using a vernier caliper, and the tumor volume (TV) was calculated according to the formula: V=½×a×b^2, where a and b represent the maximum and minimum diameters of the tumor mass, respectively. Nude mice with appropriate tumor volume were selected and the mice were evenly divided into 7 groups of 6 mice (100-200 mm^3) by tumor volume using a random number method.
(§9) Tumor diameters were measured twice weekly and tumor volume was calculated. […] (where Ti represents the mean tumor volume of a certain administration group on a certain day; TO represents the mean tumor volume of the administration group at the start of administration, Vi represents the mean tumor volume of the vehicle control group on a certain day (same day as Ti) and V0 represents the mean tumor volume of the vehicle control group at the start of administration); • Tumor inhibition rate: at the end of the test, the animals were executed by removing the cervical vertebrae.

[2] = system: Ba/F3 LMNA-NTRK1-G667C model; settings: gavage
Experimental: as §7, §8, §9

[3] = 72 h, read-out: IC50 Ba/F3 ETV6-NTRK2

SMILES	GI50 (Ba/F3 ETV6-NTRK3-G623R) [nM]	GI50 (Ba/F3 LMNA-NTRK1-G595R) [nM]	GI50 (Ba/F3 LMNA-NTRK1-G667C) [nM]	GI50 (Ba/F3 ETV6-NTRK3-G696A) [nM]	GI50 (Ba/F3 ETV6-NTRK2; [3]) [nM]	GI50 (Ba/F3 LMNA-NTRK1) [nM]	also measured
O=C(Nc1ccc(N2CCN(C(=O)C3CC3)CC2)cc1)c1cnn2ccc(N3C[C@@H](F)C[C@@H]3c3cc(F)ccc3F)nc12 [Compound 7]	0.499	0.156	1.78	0.736	–	–	–
C[C@@H](O)C(=O)N1CCC(c2ccc(NC(=O)c3cnn4ccc(N5C[C@@H](F)C[C@@H]5c5cc(F)ccc5F)nc34)cc2)CC1 [Compound 12]	0.237	0.215	1.53	0.112	1.13	0.635	–
CC(C)(O)C(=O)N1CCC(c2ccc(NC(=O)c3cnn4ccc(N5C[C@@H](F)C[C@@H]5c5cc(F)ccc5F)nc34)cc2)CC1 [Compound 13]	–	–	1.47	–	–	–	–
O=C(Nc1ccc(CN2CCN(C(=O)CO)CC2)cc1)c1cnn2ccc(N3C[C@@H](F)C[C@@H]3c3cc(F)ccc3F)nc12 [Compound 18, 5-((2R,4S)-2-(2,5-difluorophenyl)-4-fluoropyrrolidin-1-yl)-N-(4-(4-(2-(2-hydroxyacetyl)piperazin-1-yl)methyl)phenyl)pyrazolo[1,5-a]pyrimidine-3-carboxamide]	–	–	3.43	–	–	–	–
O=C(Nc1ccc(NC2COC2)cc1)c1cnn2ccc(N3C[C@@H](F)C[C@@H]3c3cc(F)ccc3F)nc12 [Compound 19, 5-((2R,4S)-2-(2,5-difluorophenyl)-4-fluoropyrrolidin-1-yl)-N-(4-(oxetan-3-ylamino)phenyl)pyrazolo[1,5-a]pyrimidine-3-carboxamide]	0.426	0.208	1.19	0.321	0.866	0.416	IC50 (TRKA): 0.265 nM; IC50 (TRKB): 0.984 nM; IC50 (TRKC): 0.724 nM; IC50 (TRKA(G595R)): < 0.169 nM; IC50 (TRKA(G667C)): 0.308 nM; IC50 (TRKC(G623R)): 0.241 nM; IC50 (TRKC(G696A)): 0.936 nM; IC50 (ALK): 39 nM; IC50 (ROS1): 0.23 nM
O=C(Nc1ccc(N2CC[C@H](O)C2)cc1)c1cnn2ccc(N3C[C@@H](F)C[C@@H]3c3cc(F)ccc3F)nc12 [Compound 21]	–	–	0.584	–	–	–	IC50 (TRKA): 0.405 nM; IC50 (TRKB): 1.55 nM; IC50 (TRKC): 0.901 nM; IC50 (TRKA(G595R)): < 0.169 nM; IC50 (TRKA(G667C)): 0.632 nM; IC50 (TRKC(G623R)): 0.749 nM; IC50 (TRKC(G696A)): 1.2 nM; IC50 (ALK): 30 nM; IC50 (ROS1): 0.33 nM
O=C(Nc1ccc(N2CCn3c(nnc3C(F)(F)F)C2)cc1)c1cnn2ccc(N3C[C@@H](F)C[C@@H]3c3cc(F)ccc3F)nc12 [Compound 23]	0.852	0.525	4.93	0.435	–	–	–
CCN1CCN(c2ccc(C(=O)Nc3cnn4ccc(N5CCC[C@@H]5c5cc(F)ccc5F)nc34)cc2)CC1 [Compound D1]	24.8	289	307	258	6.09	1.6	–
COc1cc(N2CCN(C)CC2)ccc1C(=O)Nc1cnn2ccc(N3CCC[C@@H]3c3cc(F)ccc3F)nc12 [Compound D2]	46.5	230	42.7	202	13.4	1.03	–
CN1CCN(Cc2ccc(C(=O)Nc3cnn4ccc(N5CCC[C@@H]5c5cc(F)ccc5F)nc34)cc2)CC1 [Compound D3]	207	522	316	542	17.4	8.68	–
O=C(NC1CCN(C(=O)CO)CC1)c1cnn2ccc(N3C[C@@H](F)C[C@@H]3c3cccc(F)c3)nc12 [Compound D4]	17	65.9	≥ 1000	141	14.9	9.52	–
O=C(Nc1ccccc1)c1cnn2ccc(N3C[C@@H](F)C[C@@H]3c3cccc(F)c3)nc12 [Compound D5]	13.3	4.59	413	90.8	12.2	2.14	–
C[C@@H]1CCc2ncc(F)cc2[C@H]2CCCN2c2ccn3ncc(c3n2)C(=O)N1 [LOXO-195, reference compound]	4.54	–	112	4.5	2.89	9.08	IC50 (ALK): 391 nM; Number of animals (Survival/total) [1]: (6/6); Rate of weight gain (%) [1]: 8.59%; TGI (%) [1]: 124.6%; Tumor volume (mm^3) [1]: 66.3 ± 37.1 mm^3; Tumor weight [1]: 0.12 ± 0.06 g; Tumor weight inhibition rate (%) [1]: 76.58%; Number of animals (Survival/total) ([2]; 100 mg/kg): (6/6); Rate of weight gain (%) ([2]; 100 mg/kg): 2.38%; TGI (%) ([2]; 100 mg/kg): 36.4%; Tumor volume (mm^3) ([2]; 100 mg/kg): 381.2 ± 134.4 mm^3; Tumor weight ([2]; 100 mg/kg): 0.43 ± 0.18 g; Tumor weight inhibition rate (%) ([2]; 100 mg/kg): 21.57%; Number of animals (Survival/total) ([2]; 200 mg/kg): (5/6); Rate of weight gain (%) ([2]; 200 mg/kg): 7.88%; TGI (%) ([2]; 200 mg/kg): 95.4%; Tumor volume (mm^3) ([2]; 200 mg/kg): 154.5 ± 92.2 mm^3; Tumor weight ([2]; 200 mg/kg): 0.22 ± 0.16 g; Tumor weight inhibition rate (%) ([2]; 200 mg/kg): 59.96%
CN1CCN(c2ccc(C(=O)Nc3n[nH]c4ccc(Cc5cc(F)cc(F)c5)cc34)c(NC3CCOCC3)c2)CC1 [RXDX-101, Entrectinib]	–	–	–	–	–	–	GI50 (Ba/F3 ETV6-NTRK2; read-out: IC50 Ba/F3 ETV6-NTRK2, 72 h): 2.13 nM
